Experimental data: ChEMBL document CHEMBL2016457, “Discovery of potent and orally bioavailable 17β-hydroxysteroid dehydrogenase type 3 inhibitors” (Bioorg Med Chem, 2012)
Calls of active or inactive are those of the source. How the calls were made is not given here.

How the values were obtained:
[1] = biological target: T1, 17-beta-hydroxysteroid dehydrogenase type 1 (Homo sapiens) (UniProt P14061); test: Inhibition of human recombinant 17-beta-HSD1 expressed in human HeLa cells using estrone as substrate preincubated for 30 mins prior substrate addition measured after 120 mins by spectrophotometry; format: cell-based
T1 sequence (whole entry): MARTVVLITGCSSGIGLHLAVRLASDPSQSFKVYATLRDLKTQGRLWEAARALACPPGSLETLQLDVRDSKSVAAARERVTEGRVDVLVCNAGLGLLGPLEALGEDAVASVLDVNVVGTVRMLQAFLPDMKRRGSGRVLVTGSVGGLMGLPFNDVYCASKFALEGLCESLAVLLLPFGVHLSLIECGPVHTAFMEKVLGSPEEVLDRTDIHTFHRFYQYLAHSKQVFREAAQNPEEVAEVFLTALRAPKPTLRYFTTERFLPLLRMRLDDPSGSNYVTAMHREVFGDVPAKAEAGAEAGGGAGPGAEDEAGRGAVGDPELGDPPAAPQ

[2] = biological target: T2, 17-beta-hydroxysteroid dehydrogenase type 2 (Homo sapiens) (UniProt P37059); test: Inhibition of human recombinant 17-beta-HSD2 expressed in human HeLa cells using estradiol as substrate preincubated for 30 mins prior substrate addition measured after 120 mins by spectrophotometry; format: cell-based
T2 sequence (whole entry): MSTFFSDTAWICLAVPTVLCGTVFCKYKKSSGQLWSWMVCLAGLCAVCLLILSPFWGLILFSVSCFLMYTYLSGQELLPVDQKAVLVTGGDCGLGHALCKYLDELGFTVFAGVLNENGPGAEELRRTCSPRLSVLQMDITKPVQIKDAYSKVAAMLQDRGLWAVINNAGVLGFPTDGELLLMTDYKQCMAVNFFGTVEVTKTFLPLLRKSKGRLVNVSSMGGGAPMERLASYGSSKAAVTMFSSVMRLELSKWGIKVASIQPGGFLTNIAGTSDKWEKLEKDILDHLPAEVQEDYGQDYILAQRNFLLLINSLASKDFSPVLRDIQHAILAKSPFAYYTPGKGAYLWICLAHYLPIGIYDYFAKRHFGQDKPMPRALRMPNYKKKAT

[3] = biological target: T3, Androgen receptor (Homo sapiens) (UniProt P10275); test: Agonist activity at human androgen receptor expressed in human HeLa cells assessed as DHT-induced response after 40 hrs by luciferase/beta-galactosidase-based reporter gene assay; format: functional, cell-based
T3 sequence (whole entry): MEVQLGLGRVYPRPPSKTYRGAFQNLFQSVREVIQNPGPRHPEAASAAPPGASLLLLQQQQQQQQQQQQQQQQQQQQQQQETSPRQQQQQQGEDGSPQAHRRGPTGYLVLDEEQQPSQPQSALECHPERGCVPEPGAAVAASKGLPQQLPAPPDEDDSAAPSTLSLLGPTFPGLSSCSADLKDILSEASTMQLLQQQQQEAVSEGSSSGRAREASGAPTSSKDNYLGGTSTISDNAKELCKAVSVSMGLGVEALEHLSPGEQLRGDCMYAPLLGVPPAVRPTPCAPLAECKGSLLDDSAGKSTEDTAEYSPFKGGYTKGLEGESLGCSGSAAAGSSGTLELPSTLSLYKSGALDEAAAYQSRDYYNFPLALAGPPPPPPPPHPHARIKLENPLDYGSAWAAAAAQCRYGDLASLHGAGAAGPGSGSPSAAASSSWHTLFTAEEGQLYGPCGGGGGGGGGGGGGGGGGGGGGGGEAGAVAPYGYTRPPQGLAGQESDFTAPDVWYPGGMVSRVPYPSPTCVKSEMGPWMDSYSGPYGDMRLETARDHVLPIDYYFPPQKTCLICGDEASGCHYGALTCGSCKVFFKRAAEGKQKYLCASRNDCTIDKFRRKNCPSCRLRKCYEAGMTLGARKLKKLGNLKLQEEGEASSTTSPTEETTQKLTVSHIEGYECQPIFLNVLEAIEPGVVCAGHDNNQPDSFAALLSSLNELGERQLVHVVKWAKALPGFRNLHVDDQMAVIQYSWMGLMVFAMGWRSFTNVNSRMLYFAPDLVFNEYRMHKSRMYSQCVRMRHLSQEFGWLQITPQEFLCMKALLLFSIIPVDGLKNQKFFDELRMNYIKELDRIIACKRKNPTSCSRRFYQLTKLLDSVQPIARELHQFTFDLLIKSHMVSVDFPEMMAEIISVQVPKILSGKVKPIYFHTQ

[4] = biological target: T4, Estrogen receptor (Homo sapiens) (UniProt P03372); test: Agonist activity at human Estrogen receptor ERalpha expressed in human HeLa cells assessed as DHT-induced response after 40 hrs by luciferase/beta-galactosidase-based reporter gene assay; format: functional, cell-based
T4 sequence (whole entry): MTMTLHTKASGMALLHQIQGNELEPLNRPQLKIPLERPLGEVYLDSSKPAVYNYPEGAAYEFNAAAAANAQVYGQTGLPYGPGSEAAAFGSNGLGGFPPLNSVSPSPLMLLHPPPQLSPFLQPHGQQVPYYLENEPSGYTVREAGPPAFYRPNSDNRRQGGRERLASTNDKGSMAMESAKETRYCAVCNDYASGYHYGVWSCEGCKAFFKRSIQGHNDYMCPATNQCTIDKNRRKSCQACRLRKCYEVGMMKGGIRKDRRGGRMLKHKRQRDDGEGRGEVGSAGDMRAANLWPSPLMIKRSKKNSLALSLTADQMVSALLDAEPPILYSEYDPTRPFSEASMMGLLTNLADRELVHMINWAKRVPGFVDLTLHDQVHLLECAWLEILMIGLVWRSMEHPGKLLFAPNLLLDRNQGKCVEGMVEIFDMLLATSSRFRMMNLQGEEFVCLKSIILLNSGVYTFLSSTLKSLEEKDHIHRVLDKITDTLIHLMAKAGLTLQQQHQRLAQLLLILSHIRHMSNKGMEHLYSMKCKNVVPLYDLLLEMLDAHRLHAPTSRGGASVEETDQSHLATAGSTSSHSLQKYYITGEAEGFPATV

[5] = biological target: T5, Glucocorticoid receptor (Homo sapiens) (UniProt P04150); test: Agonist activity at human Glucocorticoid receptor expressed in human HeLa cells assessed as DHT-induced response after 40 hrs by luciferase/beta-galactosidase-based reporter gene assay; format: functional, cell-based
T5 sequence (whole entry): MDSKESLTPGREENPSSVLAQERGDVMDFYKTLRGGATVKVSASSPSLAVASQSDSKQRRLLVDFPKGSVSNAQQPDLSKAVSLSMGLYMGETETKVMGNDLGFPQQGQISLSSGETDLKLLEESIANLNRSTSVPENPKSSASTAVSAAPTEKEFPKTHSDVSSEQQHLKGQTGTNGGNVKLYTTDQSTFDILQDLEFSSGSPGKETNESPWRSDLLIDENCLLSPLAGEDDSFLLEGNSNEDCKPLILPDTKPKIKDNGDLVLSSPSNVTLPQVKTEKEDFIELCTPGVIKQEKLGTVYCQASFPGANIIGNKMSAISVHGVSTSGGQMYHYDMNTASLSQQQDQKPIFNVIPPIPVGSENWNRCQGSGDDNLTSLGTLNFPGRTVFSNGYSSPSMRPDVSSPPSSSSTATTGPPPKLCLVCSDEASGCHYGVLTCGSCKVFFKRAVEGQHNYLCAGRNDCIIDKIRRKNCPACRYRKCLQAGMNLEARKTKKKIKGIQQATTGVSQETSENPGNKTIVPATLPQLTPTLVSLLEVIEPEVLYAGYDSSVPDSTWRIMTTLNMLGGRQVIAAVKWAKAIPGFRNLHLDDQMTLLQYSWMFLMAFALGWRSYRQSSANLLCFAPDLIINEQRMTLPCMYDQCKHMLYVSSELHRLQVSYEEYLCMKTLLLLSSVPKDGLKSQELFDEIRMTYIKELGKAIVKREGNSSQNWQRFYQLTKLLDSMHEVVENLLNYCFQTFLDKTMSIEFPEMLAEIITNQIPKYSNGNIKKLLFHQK

[6] = biological target: T3, Androgen receptor (Homo sapiens); test: Antagonist activity at human androgen receptor expressed in human HeLa cells assessed as inhibition of DHT-induced response after 40 hrs by luciferase/beta-galactosidase-based reporter gene assay; format: functional, cell-based
[7] = biological target: T4, Estrogen receptor (Homo sapiens); test: Antagonist activity at human ERalpha receptor expressed in human HeLa cells assessed as inhibition of DHT-induced response after 40 hrs by luciferase/beta-galactosidase-based reporter gene assay; format: functional, cell-based
[8] = biological target: T5, Glucocorticoid receptor (Homo sapiens); test: Antagonist activity at human GR receptor expressed in human HeLa cells assessed as inhibition of DHT-induced response after 40 hrs by luciferase/beta-galactosidase-based reporter gene assay; format: functional, cell-based
[9] = Solubility of the compound; format: physicochemical

In the case of `COc1ccc(N2C(=O)/C(=C/c3ccc(O)c(Br)c3)OC2=S)cc1`, the inhibition [1] is reported as “inactive”, the inhibition [2] is reported as “inactive” and the Activity [3] is reported as “inactive”. For the same compound, the Activity [4] was “inactive”, the Activity [5] was “inactive” and the Activity [6] was “inactive”. For the same compound, the Activity [7] was “inactive”, the Activity [8] was “inactive” and the solubility [9] was < 1 µg/mL.
